The source of these data is US12258355B2, “Probes for imaging huntingtin protein” (CHDI Foundation, Inc., priority 2014, dated 2025).

For this assay, the target named is T1, Q46 protein aggregates (Homo sapiens, UniProt P42858).
T1 construct: fused on or other part: GST at the N-terminus, cut off with thrombin before the test to start aggregation; The wells held aggregated Q46 without GST
As to the kind of experiment: Q46 radioligand binding assay (RBA). The note with it: 10 nM ligand [3H3]MK-3328. In outline: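 Aggregates from thrombin-cleaved GST-Q46 (16 h, 37° C) at 5 μM monomer-equivalent were pre-incubated 20 min at room temperature with compound (1 μM to 30 pM) in 150 mM NaCl, 50 mM Tris pH 8.0, then 60 min at 37° C with 10 nM [^3H3]MK-3328. Bound radioactivity was filtered and counted; IC50 came from a four-parameter global fit normalized to vehicle and 3 μM unlabelled MK-3328.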

T1 sequence (P42858 with tags, fused parts or gaps with the stated changes, form open): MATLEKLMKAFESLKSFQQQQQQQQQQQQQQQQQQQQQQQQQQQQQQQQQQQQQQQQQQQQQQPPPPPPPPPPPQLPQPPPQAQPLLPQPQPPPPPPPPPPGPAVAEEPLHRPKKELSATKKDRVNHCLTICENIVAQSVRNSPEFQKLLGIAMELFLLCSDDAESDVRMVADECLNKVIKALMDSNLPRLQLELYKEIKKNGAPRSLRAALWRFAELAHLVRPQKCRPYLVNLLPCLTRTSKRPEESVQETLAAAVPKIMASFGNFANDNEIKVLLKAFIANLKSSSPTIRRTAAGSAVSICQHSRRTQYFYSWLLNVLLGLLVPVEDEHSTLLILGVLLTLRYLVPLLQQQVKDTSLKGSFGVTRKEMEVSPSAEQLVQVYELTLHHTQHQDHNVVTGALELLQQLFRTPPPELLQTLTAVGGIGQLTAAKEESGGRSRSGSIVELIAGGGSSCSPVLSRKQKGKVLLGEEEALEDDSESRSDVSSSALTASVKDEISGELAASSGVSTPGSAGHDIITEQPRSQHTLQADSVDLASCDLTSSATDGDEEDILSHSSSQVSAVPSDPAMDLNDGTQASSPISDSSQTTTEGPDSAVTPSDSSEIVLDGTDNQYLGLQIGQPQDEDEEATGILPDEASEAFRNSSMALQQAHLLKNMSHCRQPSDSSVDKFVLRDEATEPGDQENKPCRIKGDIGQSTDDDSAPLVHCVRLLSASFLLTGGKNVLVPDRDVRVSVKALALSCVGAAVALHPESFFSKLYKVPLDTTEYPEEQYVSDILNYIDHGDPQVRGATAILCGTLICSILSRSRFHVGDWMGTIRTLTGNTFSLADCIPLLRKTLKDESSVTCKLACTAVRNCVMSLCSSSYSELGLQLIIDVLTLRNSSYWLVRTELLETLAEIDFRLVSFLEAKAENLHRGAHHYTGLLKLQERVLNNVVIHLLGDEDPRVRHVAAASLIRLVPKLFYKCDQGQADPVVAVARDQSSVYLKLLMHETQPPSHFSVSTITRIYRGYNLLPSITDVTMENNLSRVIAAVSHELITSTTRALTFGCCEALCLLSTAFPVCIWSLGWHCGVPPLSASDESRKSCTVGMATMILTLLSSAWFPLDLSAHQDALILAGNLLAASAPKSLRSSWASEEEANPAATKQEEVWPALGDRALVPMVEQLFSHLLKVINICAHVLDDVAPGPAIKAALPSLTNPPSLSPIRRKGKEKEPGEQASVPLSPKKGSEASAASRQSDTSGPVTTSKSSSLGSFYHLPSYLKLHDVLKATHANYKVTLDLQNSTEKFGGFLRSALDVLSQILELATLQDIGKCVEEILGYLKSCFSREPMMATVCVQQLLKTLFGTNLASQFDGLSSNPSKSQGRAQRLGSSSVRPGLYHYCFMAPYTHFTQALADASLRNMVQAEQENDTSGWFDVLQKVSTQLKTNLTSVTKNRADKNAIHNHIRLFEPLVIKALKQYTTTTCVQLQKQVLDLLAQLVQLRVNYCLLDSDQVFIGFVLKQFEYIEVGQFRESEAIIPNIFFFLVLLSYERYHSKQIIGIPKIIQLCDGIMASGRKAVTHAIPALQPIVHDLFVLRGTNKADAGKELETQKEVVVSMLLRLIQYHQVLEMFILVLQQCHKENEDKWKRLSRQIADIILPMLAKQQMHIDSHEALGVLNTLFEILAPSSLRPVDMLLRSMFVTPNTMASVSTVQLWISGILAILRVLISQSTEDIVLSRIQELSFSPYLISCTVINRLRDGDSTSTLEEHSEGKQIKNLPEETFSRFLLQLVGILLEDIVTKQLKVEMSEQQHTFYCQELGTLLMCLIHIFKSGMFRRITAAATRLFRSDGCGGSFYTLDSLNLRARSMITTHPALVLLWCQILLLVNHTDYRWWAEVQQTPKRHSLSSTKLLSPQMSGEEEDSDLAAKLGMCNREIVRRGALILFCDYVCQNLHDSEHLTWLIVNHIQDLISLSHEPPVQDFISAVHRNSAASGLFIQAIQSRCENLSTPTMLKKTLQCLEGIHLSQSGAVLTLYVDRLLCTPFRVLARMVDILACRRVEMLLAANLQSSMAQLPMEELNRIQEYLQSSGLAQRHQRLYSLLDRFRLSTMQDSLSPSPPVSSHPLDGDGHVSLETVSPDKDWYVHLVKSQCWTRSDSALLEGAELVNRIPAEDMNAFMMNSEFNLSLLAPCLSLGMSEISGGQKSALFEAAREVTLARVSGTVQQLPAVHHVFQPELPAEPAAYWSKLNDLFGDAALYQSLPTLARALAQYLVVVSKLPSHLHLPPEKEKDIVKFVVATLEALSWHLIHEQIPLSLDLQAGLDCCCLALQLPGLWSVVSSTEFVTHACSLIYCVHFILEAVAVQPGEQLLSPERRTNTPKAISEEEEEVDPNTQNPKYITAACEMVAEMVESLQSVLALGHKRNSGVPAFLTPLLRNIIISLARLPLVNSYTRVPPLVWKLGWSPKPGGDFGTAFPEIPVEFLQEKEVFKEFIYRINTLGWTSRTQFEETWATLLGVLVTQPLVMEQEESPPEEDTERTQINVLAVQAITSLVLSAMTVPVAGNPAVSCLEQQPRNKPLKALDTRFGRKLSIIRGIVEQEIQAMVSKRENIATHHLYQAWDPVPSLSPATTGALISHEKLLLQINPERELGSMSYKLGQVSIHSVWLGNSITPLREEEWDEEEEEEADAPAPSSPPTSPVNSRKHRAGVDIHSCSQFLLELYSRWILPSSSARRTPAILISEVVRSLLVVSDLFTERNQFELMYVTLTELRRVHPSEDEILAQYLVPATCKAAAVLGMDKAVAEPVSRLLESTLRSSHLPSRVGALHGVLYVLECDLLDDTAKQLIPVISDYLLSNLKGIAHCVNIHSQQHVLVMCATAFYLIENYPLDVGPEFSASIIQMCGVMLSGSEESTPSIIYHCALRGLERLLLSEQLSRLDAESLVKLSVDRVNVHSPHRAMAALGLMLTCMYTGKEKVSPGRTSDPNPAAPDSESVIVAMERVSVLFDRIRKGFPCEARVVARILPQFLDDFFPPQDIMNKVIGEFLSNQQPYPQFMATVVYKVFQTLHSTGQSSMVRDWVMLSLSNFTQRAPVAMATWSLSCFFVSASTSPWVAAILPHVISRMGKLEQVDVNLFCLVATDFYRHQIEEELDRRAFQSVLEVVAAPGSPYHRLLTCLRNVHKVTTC

As for `CN(C)CCn1cc(COc2ccc3oc(-c4ccncc4C#N)cc3c2)cn1` [4-[5-({1-[2-(dimethylamino)ethyl]-1H-pyrazol-4-yl}methoxy)-1-benzofuran-2-yl]pyridine-3-carbonitrile], the IC50 is < 100 nM. For `Cc1cncc(Oc2ccc(C(=O)Nc3ccc4oc(-c5cccnc5)nc4c3)cc2)n1` [4-[(6-methylpyrazin-2-yl)oxy]-N-[2-(pyridin-3-yl)-1,3-benzoxazol-5-yl]benzamide] the value was < 100 nM; for `N#Cc1ccc(C(=O)Nc2ccc3oc(-c4cccnc4)nc3c2)cc1` [4-cyano-N-[2-(pyridin-3-yl)-1,3-benzoxazol-5-yl]benzamide], < 100 nM; for `O=C(Nc1ccc2oc(-c3cccnc3)nc2c1)c1cc(O)ccn1` [4-hydroxy-N-[2-(pyridin-3-yl)-1,3-benzoxazol-5-yl]pyridine-2-carboxamide], 100 to 500 nM. Next, `COc1ccnc(COc2cnc3oc(-c4cccnc4)nc3c2)c1` [4-methoxy-2-({[2-(pyridin-3-yl)-[1,3]oxazolo[5,4-b]pyridin-6-yl]oxy}methyl)pyridine]: < 100 nM; `COc1ccnc(C(=O)Nc2ccc3oc(-c4ccc(=O)n(C)n4)nc3c2)c1` [4-methoxy-N-[2-(1-methyl-6-oxo-1,6-dihydropyridazin-3-yl)-1,3-benzoxazol-5-yl]pyridine-2-carboxamide]: < 100 nM; `COc1ccc(C(=O)Nc2ccc3oc(-c4cccc(C)c4)nc3c2)cc1` [4-methoxy-N-[2-(3-methylphenyl)-1,3-benzoxazol-5-yl]benzamide]: < 100 nM.

Consider `COc1ccc(C(=O)Nc2cnc3oc(-c4cccc(C)c4)nc3c2)cc1` [4-methoxy-N-[2-(3-methylphenyl)[1,3]oxazolo[5,4-b]pyridin-6-yl]benzamide], for which the IC50 is < 100 nM.

As to `COc1ccc(C(=O)Nc2ccc3oc(-c4ccc(OC)cc4)nc3c2)cc1` [4-methoxy-N-[2-(4-methoxyphenyl)-1,3-benzoxazol-5-yl]benzamide], the IC50 was < 100 nM. Regarding `COc1ccc(C(=O)Nc2ccc3oc(-c4cccnc4)nc3c2)cc1` [4-methoxy-N-[2-(pyridin-3-yl)-1,3-benzoxazol-5-yl]benzamide], the IC50 is < 100 nM. For `COc1ccnc(C(=O)Nc2ccc3oc(-c4cccnc4)nc3c2)c1` [4-methoxy-N-[2-(pyridin-3-yl)-1,3-benzoxazol-5-yl]pyridine-2-carboxamide] the value was < 100 nM; for `COc1ccc(C(=O)Nc2ccc3oc(-c4ccncc4)nc3c2)cc1` [4-methoxy-N-[2-(pyridin-4-yl)-1,3-benzoxazol-5-yl]benzamide], < 100 nM; for `Cn1ccnc1COc1ccc2oc(-c3ccncc3C#N)cc2c1` [4-{5-[(1-methyl-1H-imidazol-2-yl)methoxy]-1-benzofuran-2-yl}pyridine-3-carbonitrile], 100 to 500 nM. For `Cn1cnc(COc2ccc3oc(-c4ccncc4C#N)cc3c2)c1` [4-{5-[(1-methyl-1H-imidazol-4-yl)methoxy]-1-benzofuran-2-yl}pyridine-3-carbonitrile] the value was < 100 nM; for `Cn1cc(COc2ccc3oc(-c4ccncc4C#N)cc3c2)cn1` [4-{5-[(1-methyl-1H-pyrazol-4-yl)methoxy]-1-benzofuran-2-yl}pyridine-3-carbonitrile], < 100 nM; for `COc1ccc(COc2ccc3oc(-c4ccc(C#N)cc4)nc3c2)nc1` [4-{5-[(5-methoxypyridin-2-yl)methoxy]-1,3-benzoxazol-2-yl]benzonitrile], < 100 nM.

As to `COc1ccc(COc2ccc3oc(-c4ccncc4C#N)cc3c2)nc1` [4-{5-[(5-methoxypyridin-2-yl)methoxy]-1-benzofuran-2-yl}pyridine-3-carbonitrile], the IC50 was < 100 nM. For `COc1ccc(COc2ccc3oc(-c4ccncc4)cc3c2)nc1` [4-{5-[(5-methoxypyridin-2-yl)methoxy]-1-benzofuran-2-yl}pyridine] the value was < 100 nM; for `CC(=O)Oc1ccc(C(=O)Nc2ccc3oc(-c4ccc(Cl)cc4)nc3c2)cc1` [4-{[2-(4-chlorophenyl)-1,3-benzoxazol-5-yl]carbamoyl}phenyl acetate], < 100 nM; for `Cn1cc(-c2ccc3oc(-c4cccnc4)nc3c2)cn1` [5-(1-methyl-1H-pyrazol-4-yl)-2-(pyridin-3-yl)-1,3-benzoxazole], 100 to 500 nM.

Take `Cn1cc(-c2ccc(COc3cnc4oc(-c5cccnc5)nc4c3)nc2)cn1` [5-(1-methyl-1H-pyrazol-4-yl)-2-({[2-(pyridin-3-yl)-[1,3]oxazolo[5,4-b]pyridin-6-yl]oxy}methyl)pyridine]: the concentration for half-maximal inhibition (IC50) was < 100 nM. Next, `COc1ncc(-c2ccc3oc(-c4cccnc4)nc3c2)cn1` [5-(2-methoxypyrimidin-5-yl)-2-(pyridin-3-yl)-1,3-benzoxazole]: 100 to 500 nM. For `COc1ccc(-c2ccc3oc(-c4cccnc4)nc3c2)cc1` [5-(4-methoxyphenyl)-2-(pyridin-3-yl)-1,3-benzoxazole] the value was < 100 nM; for `COc1cnc(-c2ccc3oc(-c4cccnc4)nc3c2)cn1` [5-(5-methoxypyrazin-2-yl)-2-(pyridin-3-yl)-1,3-benzoxazole], < 100 nM; for `COc1ccc(-c2ccc3oc(-c4cccnc4)nc3c2)nc1` [5-(5-methoxypyridin-2-yl)-2-(pyridin-3-yl)-1,3-benzoxazole], 100 to 500 nM. Take `COc1cnc(-c2ccc3oc(-c4cccnc4)nc3c2)nc1` [5-(5-methoxypyrimidin-2-yl)-2-(pyridin-3-yl)-1,3-benzoxazole]: the half-inhibitory concentration (IC50) is < 100 nM. For `COc1ccc(-c2ccc3oc(-c4cccnc4)nc3c2)nn1` [5-(6-methoxypyridazin-3-yl)-2-(pyridin-3-yl)-1,3-benzoxazole] the value was < 100 nM; for `c1ccc(COc2ccc3oc(-c4cccnc4)nc3c2)nc1` [5-(pyridin-2-ylmethoxy)-2-(pyridin-3-yl)-1,3-benzoxazole], 100 to 500 nM. Next, `c1cncc(-c2nc3cc(OCc4ccc(OCCN5CCOCC5)cn4)ccc3o2)c1` [5-({5-[2-(morpholin-4-yl)ethoxy]pyridin-2-yl}methoxy)-2-(pyridin-3-yl)-1,3-benzoxazole]: < 100 nM; `O=c1cnc(COc2ccc3oc(-c4cccnc4)nc3c2)c[nH]1` [5-({[2-(pyridin-3-yl)-1,3-benzoxazol-5-yl]oxy}methyl)-1,2-dihydropyrazin-2-one]: 100 to 500 nM.

With `c1ccc(OCCOc2ccc3oc(-c4cccnc4)nc3c2)nc1` [5-[2-(pyridin-2-yloxy)ethoxy]-2-(pyridin-3-yl)-1,3-benzoxazole], the IC50 was 100 to 500 nM. For `Oc1cnc(-c2ccc3oc(-c4cccnc4)nc3c2)cn1` [5-[2-(pyridin-3-yl)-1,3-benzoxazol-5-yl]pyrazin-2-ol] the value was 100 to 500 nM. For `COc1cnc(N2CCN(c3ccc4oc(-c5cccnc5)nc4c3)CC2)nc1` [5-[4-(5-methoxypyrimidin-2-yl)piperazin-1-yl]-2-(pyridin-3-yl)-1,3-benzoxazole] the value was < 100 nM; for `COCCOc1cnc(-c2ccc3oc(-c4cccnc4)nc3c2)nc1` [5-[5-(2-methoxyethoxy)pyrimidin-2-yl]-2-(pyridin-3-yl)-1,3-benzoxazole], < 100 nM; for `Cn1cc(COc2ccc3oc(-c4cccnc4)nc3c2)cn1` [5-[(1-methyl-1H-pyrazol-4-yl)methoxy]-2-(pyridin-3-yl)-1,3-benzoxazole], 100 to 500 nM. For `COc1cccc(COc2ccc3oc(-c4cccnc4)nc3c2)c1` [5-[(3-methoxyphenyl)methoxy]-2-(pyridin-3-yl)-1,3-benzoxazole] the value was < 100 nM; for `COc1ccc(COc2ccc3oc(-c4cccnc4)nc3c2)cc1` [5-[(4-methoxyphenyl)methoxy]-2-(pyridin-3-yl)-1,3-benzoxazole], < 100 nM; for `Brc1ccc(COc2ccc3oc(-c4cccnc4)nc3c2)nc1` [5-[(5-bromopyridin-2-yl)methoxy]-2-(pyridin-3-yl)-1,3-benzoxazole], < 100 nM. `COc1cnc(COc2ccc3c(c2)nc(-c2cccnc2)n3C)cn1` [5-[(5-methoxypyrazin-2-yl)methoxy]-1-methyl-2-(pyridin-3-yl)-1H-1,3-benzodiazole] came in with an IC50 of 100 to 500 nM. For `COc1cnc(COc2ccc3oc(-c4cnn(C)c4)nc3c2)cn1` [5-[(5-methoxypyrazin-2-yl)methoxy]-2-(1-methyl-1H-pyrazol-4-yl)-1,3-benzoxazole] the value was < 100 nM; for `COc1cnc(COc2ccc3oc(-c4cccnc4)nc3c2)cn1` [5-[(5-methoxypyrazin-2-yl)methoxy]-2-(pyridin-3-yl)-1,3-benzoxazole], < 100 nM; for `COc1cnc(COc2ccc3[nH]c(-c4cccnc4)nc3c2)cn1` [5-[(5-methoxypyrazin-2-yl)methoxy]-2-(pyridin-3-yl)-1H-1,3-benzodiazole], < 100 nM. Take `COc1ccc(COc2ccc3oc(-c4cncs4)nc3c2)nc1` [5-[(5-methoxypyridin-2-yl)methoxy]-2-(1,3-thiazol-5-yl)-1,3-benzoxazole]: the IC50 was < 100 nM.

For the compound `COc1ccc(COc2ccc3oc(-c4cn(C)cn4)nc3c2)nc1` [5-[(5-methoxypyridin-2-yl)methoxy]-2-(1-methyl-1H-imidazol-4-yl)-1,3-benzoxazole], the IC50 lay within 100 to 500 nM.

For the compound `COc1ccc(COc2ccc3oc(C4CCN(C)CC4)nc3c2)nc1` [5-[(5-methoxypyridin-2-yl)methoxy]-2-(1-methylpiperidin-4-yl)-1,3-benzoxazole], the IC50 was 100 to 500 nM. For `COc1ccc(COc2ccc3oc(-c4ccnc(C)c4)nc3c2)nc1` [5-[(5-methoxypyridin-2-yl)methoxy]-2-(2-methylpyridin-4-yl)-1,3-benzoxazole] the value was < 100 nM. Next, `COc1ccc(COc2ccc3oc(-c4cccc(Oc5ccccc5)c4)nc3c2)nc1` [5-[(5-methoxypyridin-2-yl)methoxy]-2-(3-phenoxyphenyl)-1,3-benzoxazole]: < 100 nM.
